The test system of assay [1] is Pseudomonas aeruginosa. The assay can be described thus: Antibacterial activity against Pseudomonas aeruginosa Clone C clinical isolate assessed as growth inhibition at 8 ug/ml measured every 15 mins by microtiter plate reader method in presence of […] ug/ml colistin. The class given is functional, organism-based.
The test system of assay [2] is Pseudomonas aeruginosa. Nature of the assay: Antibacterial activity against Pseudomonas aeruginosa KD491 clinical isolate after 18 to 22 hrs by checkerboard method in presence of tobramycin. The format is functional.
Assay [3] relates to Pseudomonas aeruginosa. Nature of the assay: Antibacterial activity against Pseudomonas aeruginosa PAO1 clinical isolate assessed as inhibition of biofilm formation at 32 ug/ml after 18 to 22 hrs by crystal violet staining-based polystyrene microtiter plate reader method in presence of 2 ug/ml tobramycin. The class given is functional, organism-based.
For assay [4], the system named is Pseudomonas aeruginosa. The assay can be described thus: Antibacterial activity against Pseudomonas aeruginosa Clone C clinical isolate after 16 to 20 hrs by microdilution assay. The class given is functional.
The subject of assay [5] is Pseudomonas aeruginosa. Nature of the assay: Antibacterial activity against Pseudomonas aeruginosa KD491 clinical isolate assessed as inhibition of biofilm formation at 32 ug/ml after 18 to 22 hrs by crystal violet staining-based polystyrene microtiter plate reader method. The format is functional.
Assay [6] relates to Pseudomonas aeruginosa. The assay can be described thus: Antibacterial activity against Pseudomonas aeruginosa PAO1 clinical isolate assessed as delay in growth rate in exponential phase of bacterial growth curve at 4 to 32 ug/ml measured every 15 mins by microtiter plate reader method. The class given is functional, organism-based.
Assay [7] deals with Pseudomonas aeruginosa. The assay can be described thus: Antibacterial activity against Pseudomonas aeruginosa PAO1 clinical isolate assessed as growth inhibition at 32 ug/ml measured every 15 mins by microtiter plate reader method in presence of […] ug/ml tobramycin. The format is functional, organism-based.
The test system of assay [8] is Pseudomonas aeruginosa. Nature of the assay: Antibacterial activity against Pseudomonas aeruginosa VW178 clinical isolate after 16 to 20 hrs by microdilution assay. The format is functional.
Assay [9] has as its system Pseudomonas aeruginosa. Nature of the assay: Antibacterial activity against Pseudomonas aeruginosa Clone C clinical isolate assessed as inhibition of biofilm formation at 32 ug/ml after 18 to 22 hrs by crystal violet staining-based polystyrene microtiter plate reader method in presence of 2 ug/ml tobramycin. The class given is functional, organism-based.
In assay [10] the test system is Pseudomonas aeruginosa. Nature of the assay: Antibacterial activity against Pseudomonas aeruginosa LESB58 clinical isolate assessed as growth inhibition at 4 ug/ml measured every 15 mins by microtiter plate reader method in presence of 2 ug/ml colistin. The format is functional, organism-based.
For assay [11], the system named is Pseudomonas aeruginosa. Nature of the assay: Antibacterial activity against Pseudomonas aeruginosa VW1540 clinical isolate after 16 to 20 hrs by microdilution assay. The format is functional. On the technique in general: In broth dilution the organism is exposed to a series of concentrations in liquid medium.
In assay [12] the test system is Pseudomonas aeruginosa. The assay can be described thus: Antibacterial activity against Pseudomonas aeruginosa KD491 clinical isolate assessed as inhibition of biofilm formation at 8 ug/ml after 24 hrs by propidium iodide staining-based confocal laser microscopy. The class given is functional, organism-based.
For assay [13], the system named is Pseudomonas aeruginosa. The assay can be described thus: Antibacterial activity against Pseudomonas aeruginosa kl 1.1 clinical isolate after 16 to 20 hrs by microdilution assay. The format is functional.
For assay [14], the system named is Pseudomonas aeruginosa. Nature of the assay: Antibacterial activity against Pseudomonas aeruginosa Clone C clinical isolate assessed as inhibition of biofilm formation at 32 ug/ml after 18 to 22 hrs by crystal violet staining-based polystyrene microtiter plate reader method in absence of colistin. The format is functional, organism-based.
Assay [15] deals with Pseudomonas aeruginosa. The assay can be described thus: Antibacterial activity against Pseudomonas aeruginosa Clone C clinical isolate assessed as inhibition of biofilm formation at 8 ug/ml after 24 hrs by propidium iodide staining-based confocal laser microscopy. The class given is functional, organism-based.
In assay [16] the test system is Pseudomonas aeruginosa. Nature of the assay: Antibacterial activity against Pseudomonas aeruginosa Clone C clinical isolate after 18 to 22 hrs by checkerboard method in presence of tobramycin. The class given is functional.
Assay [17] deals with Pseudomonas aeruginosa. Nature of the assay: Antibacterial activity against Pseudomonas aeruginosa VW1471 clinical isolate after 16 to 20 hrs by microdilution assay. The format is functional.
The subject of assay [18] is Pseudomonas aeruginosa. The assay can be described thus: Antibacterial activity against Pseudomonas aeruginosa KD491 clinical isolate after 16 to 20 hrs by microdilution assay. The format is functional.
Assay [19] deals with Pseudomonas aeruginosa. The assay can be described thus: Antibacterial activity against Pseudomonas aeruginosa PAO1 clinical isolate assessed as delay in growth at 4 to 32 ug/ml measured every 15 mins by microtiter plate reader method. The format is functional, organism-based.
Assay [20] deals with Pseudomonas aeruginosa. The assay can be described thus: Antibacterial activity against Pseudomonas aeruginosa KD491 clinical isolate after 18 to 22 hrs by checkerboard method in presence of colistin. The class given is functional.
Assay [21] concerns Pseudomonas aeruginosa. The assay can be described thus: Antibacterial activity against Pseudomonas aeruginosa PAO1 clinical isolate assessed as inhibition of biofilm formation at 4 ug/ml after 18 to 22 hrs by crystal violet staining-based polystyrene microtiter plate reader method in presence of 0.5 ug/ml colistin. The format is functional, organism-based.

Molecules are shown by their SMILES. Values after ≈ are worked out from the molar mass of the structure shown. Active and inactive are the calls of the source. The rule behind the calls is not given here. Peptide text beside a SMILES is read from it. * marks the point of attachment. Decanoyl = CCCCCCCCCC(=O)*

The results in this text go back to ChEMBL document CHEMBL3779859, “Synergistic activity of a short lipidated antimicrobial peptide (lipoAMP) and colistin or tobramycin against Pseudomonas aeruginosa from cystic fibrosis patients” (Medchemcomm, 2016).

Usually inhibition stands for the percentage by which the read-out fell short of the control. The term MIC denotes the least concentration at which growth counts as inhibited. Higher therefore signals a less susceptible organism.

As to `CCCCCCCCCC(=O)NCCCC[C@H](NC(=O)[C@H](Cc1c[nH]c2ccccc12)NC(=O)[C@H](CCCNC(=N)N)NC(=O)[C@H](Cc1c[nH]c2ccccc12)NC(=O)[C@H](CCCNC(=N)N)NC(=O)[C@H](Cc1c[nH]c2ccccc12)NC(=O)[C@@H](N)CCCNC(=N)N)C(=O)O` (H-RWRWRWK(Decanoyl)-OH), the “growth inhibition (GI)” value with Pseudomonas aeruginosa [1], in the assay on Pseudomonas aeruginosa [7] and in the assay on Pseudomonas aeruginosa [10] was “Active” each time. Further, the entries for the “fractional inhibitory concentration index (FICI)” value in the assay with Pseudomonas aeruginosa [2], in the assay on Pseudomonas aeruginosa [16] and in the assay on Pseudomonas aeruginosa [20] were 0.375, 0.5 and 0.2625, respectively. Further, the inhibition result in the assay with Pseudomonas aeruginosa [3], in the assay with Pseudomonas aeruginosa [9], with Pseudomonas aeruginosa [12], with Pseudomonas aeruginosa [14], in the assay with Pseudomonas aeruginosa [15] and with Pseudomonas aeruginosa [21] was “inactive” each time. Besides, the minimal inhibitory concentration (MIC) in the assay with Pseudomonas aeruginosa [4] was 128 µg/mL (≈ 96.4 µM); with Pseudomonas aeruginosa [8], 32 µg/mL (≈ 24.1 µM); against Pseudomonas aeruginosa [11], 64 µg/mL (≈ 48.2 µM); in the assay with Pseudomonas aeruginosa [13], 128 µg/mL (≈ 96.4 µM); in the assay on Pseudomonas aeruginosa [17], 64 µg/mL (≈ 48.2 µM); in the assay on Pseudomonas aeruginosa [18] it was 16 µg/mL (≈ 12.1 µM). For the same compound, the inhibition at 32 µg/mL in the assay with Pseudomonas aeruginosa [5] was determined as 80%. The result in the assay on Pseudomonas aeruginosa [6] and with Pseudomonas aeruginosa [19] was Active.
